Measured values as given in patent US10093713B2, “GIP-GLP-1 dual agonist compounds and methods” (priority 2013, dated 2018).
Read-outs that look alike come from different tables or passages of the source. *1 amine or outer side, *2 acyl side, *3 side chain or, on linkers, in order; H or OH if unused. Where a SMILES comes first, the peptide text is derived from it. Side-chain parts run from the residue outwards. [ ]: non-standard residue; d: D form. The star is where a group is joined. C20 diacid = O=C(O)CCCCCCCCCCCCCCCCCCC(=O)*; γGlu = O=C(O)[C@H](CCC(=O)[*:2])N[*:1]; Dap = NC[C@H](N)C(=O)O; AEEA = NCCOCCOCC(=O)O; Aib = CC(C)(N)C(=O)O

Tests used:
human GIP R = target: T1, human GIP R (Homo sapiens, UniProt P48546); experiment: Human GIP receptor (GIP R) activity assay, cAMP induction (AlphaScreen) in HEK293 cells; type: cell-based; conditions: read-out: hGIP-R cAMP EC50 average value
T1 construct: expressed in transfected cells
T1 sequence (P48546 22-466): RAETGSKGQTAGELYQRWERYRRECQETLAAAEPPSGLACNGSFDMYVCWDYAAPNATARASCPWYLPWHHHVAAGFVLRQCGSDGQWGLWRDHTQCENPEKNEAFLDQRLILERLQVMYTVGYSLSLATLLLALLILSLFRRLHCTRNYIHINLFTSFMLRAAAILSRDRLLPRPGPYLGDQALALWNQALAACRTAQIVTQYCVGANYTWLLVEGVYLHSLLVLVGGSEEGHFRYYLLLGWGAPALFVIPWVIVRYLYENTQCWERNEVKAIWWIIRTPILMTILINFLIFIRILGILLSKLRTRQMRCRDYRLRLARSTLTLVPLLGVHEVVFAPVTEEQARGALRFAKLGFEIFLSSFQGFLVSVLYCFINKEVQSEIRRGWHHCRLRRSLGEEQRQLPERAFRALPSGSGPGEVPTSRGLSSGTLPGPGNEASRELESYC
Outline: (§1)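 Stable HEK293 clones expressing human GIP R or GLP-1 R, seeded 1 day before; cells washed in Tyrode's buffer (10 mM HEPES, pH 7.4), stimulated, then lysed. cAMP measured by AlphaScreen bead competition (1 h, room temperature, dark). EC50 = concentration giving half-maximal cAMP elevation, from curves of absolute cAMP (nM) vs log concentration.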

human GLP-1 R = target: T2, human GLP-1 R (Homo sapiens, UniProt P43220); experiment: Human GLP-1 receptor (GLP-1 R) activity assay, cAMP induction (AlphaScreen) in HEK293 cells; type: cell-based
T2 construct: expressed in transfected cells
Outline: as §1

[1] = Table 3, most comprehensive data
[2] = Table 3, most comprehensive data, read-out: hGLP-1-R cAMP EC50 average value

T2 sequence (P43220 24-463): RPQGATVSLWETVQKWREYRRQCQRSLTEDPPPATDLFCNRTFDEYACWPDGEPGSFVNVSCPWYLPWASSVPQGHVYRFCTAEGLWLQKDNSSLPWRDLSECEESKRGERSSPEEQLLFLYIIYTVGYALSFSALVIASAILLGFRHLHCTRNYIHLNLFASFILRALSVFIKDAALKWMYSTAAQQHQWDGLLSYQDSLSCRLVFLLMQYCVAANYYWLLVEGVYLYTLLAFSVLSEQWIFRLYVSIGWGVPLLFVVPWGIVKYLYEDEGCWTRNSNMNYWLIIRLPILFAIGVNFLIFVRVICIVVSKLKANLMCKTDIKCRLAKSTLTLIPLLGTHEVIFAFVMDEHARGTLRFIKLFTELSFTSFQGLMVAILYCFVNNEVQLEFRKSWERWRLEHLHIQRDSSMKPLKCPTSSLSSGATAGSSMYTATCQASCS

Row | Structure (SMILES) | EC50 (human GIP R; Table 2, HEK293 cells expressing human GIP R) [pM] | EC50 (human GIP R; [1]) [pM] | EC50 (human GLP-1 R; Table 2, HEK293 cells expressing human GLP-1 R, read-out: hGLP1-R cAMP EC50 average value) [pM] | EC50 (human GLP-1 R; [2]) [pM]
1 | CC[C@H](C)[C@H](NC(=O)[C@H](CO)NC(=O)[C@H](CC(C)C)NC(=O)[C@H](CC(=O)O)NC(=O)[C@H](CO)NC(=O)[C@@H](NC(=O)[C@H](Cc1ccccc1)NC(=O)[C@@H](NC(=O)CNC(=O)[C@H](CCC(=O)O)NC(=O)C(C)(C)NC(=O)[C@@H](N)Cc1ccc(O)cc1)[C@@H](C)O)[C@@H](C)O)C(=O)N[C@@H](C)C(=O)N[C@@H](CC(C)C)C(=O)N[C@@H](CCC(=O)O)C(=O)N[C@@H](CCCCN)C(=O)N[C@@H](CCCCNC(=O)COCCOCCNC(=O)COCCOCCNC(=O)CC[C@H](NC(=O)CCCCCCCCCCCCCCCCCCC(=O)O)C(=O)O)C(=O)N[C@@H](C)C(=O)N[C@@H](CCC(N)=O)C(=O)N[C@@H](CCCNC(=N)N)C(=O)N[C@@H](C)C(=O)N[C@@H](Cc1ccccc1)C(=O)N[C@H](C(=O)N[C@@H](CCC(=O)O)C(=O)N[C@@H](Cc1c[nH]c2ccccc12)C(=O)N[C@@H](CC(C)C)C(=O)N[C@@H](CC(C)C)C(=O)N[C@@H](C)C(=O)N[C@@H](CCC(N)=O)C(=O)NCC(=O)N1CCC[C@H]1C(=O)N[C@@H](CO)C(=O)N[C@@H](CO)C(=O)NCC(=O)N[C@@H](C)C(=O)N1CCC[C@H]1C(=O)N1CCC[C@H]1C(=O)N1CCC[C@H]1C(=O)N[C@@H](CO)C(N)=O)C(C)C [Compound 33] (H-Y[Aib]EGTFTSDLSIALEKK([AEEA-AEEA-γGlu-C20 diacid])AQRAFVEWLLAQGPSSGAPPPS-NH2) | 9 | 9 | 14 | 
2 | CC[C@H](C)[C@H](NC(=O)[C@H](CO)NC(=O)[C@H](Cc1ccc(O)cc1)NC(=O)[C@H](CC(=O)O)NC(=O)[C@H](CO)NC(=O)[C@@H](NC(=O)[C@H](Cc1ccccc1)NC(=O)[C@@H](NC(=O)CNC(=O)[C@H](CCC(=O)O)NC(=O)C(C)(C)NC(=O)[C@@H](N)Cc1ccc(O)cc1)[C@@H](C)O)[C@@H](C)O)C(=O)N[C@@H](Cc1ccc(O)cc1)C(=O)N[C@@H](CC(C)C)C(=O)N[C@@H](CC(=O)O)C(=O)N[C@@H](CCCCN)C(=O)N[C@@H](CCCCNC(=O)COCCOCCNC(=O)COCCOCCNC(=O)CCCCCCCCCCCCCCCCCCC(=O)O)C(=O)N[C@@H](C)C(=O)N[C@@H](CCC(N)=O)C(=O)N[C@@H](CCCNC(=N)N)C(=O)N[C@@H](C)C(=O)N[C@@H](Cc1ccccc1)C(=O)N[C@H](C(=O)N[C@@H](CCC(=O)O)C(=O)N[C@@H](Cc1c[nH]c2ccccc12)C(=O)N[C@@H](CC(C)C)C(=O)N[C@@H](CC(C)C)C(=O)N[C@@H](C)C(=O)N[C@@H](CCC(N)=O)C(=O)NCC(=O)N1CCC[C@H]1C(=O)N[C@@H](CO)C(=O)N[C@@H](CO)C(=O)NCC(=O)N[C@@H](C)C(=O)N1CCC[C@H]1C(=O)N1CCC[C@H]1C(=O)N1CCC[C@H]1C(=O)N[C@@H](CO)C(N)=O)C(C)C [Compound 35] (H-Y[Aib]EGTFTSDYSIYLDKK([AEEA-AEEA-C20 diacid])AQRAFVEWLLAQGPSSGAPPPS-NH2) |  | 16 |  | 12
3 | CC[C@H](C)[C@H](NC(=O)[C@H](CO)NC(=O)[C@H](Cc1ccc(O)cc1)NC(=O)[C@H](CC(=O)O)NC(=O)[C@H](CO)NC(=O)[C@@H](NC(=O)[C@H](Cc1ccccc1)NC(=O)[C@@H](NC(=O)CNC(=O)[C@H](CCC(=O)O)NC(=O)C(C)(C)NC(=O)[C@@H](N)Cc1ccc(O)cc1)[C@@H](C)O)[C@@H](C)O)C(=O)N[C@@H](Cc1ccc(O)cc1)C(=O)N[C@@H](CC(C)C)C(=O)N[C@@H](CC(=O)O)C(=O)N[C@@H](CCCCN)C(=O)N[C@@H](CCCCNC(=O)CC[C@H](NC(=O)CCCCCCCCCCCCCCCCCCC(=O)O)C(=O)O)C(=O)N[C@@H](C)C(=O)N[C@@H](CCC(N)=O)C(=O)N[C@@H](CCCNC(=N)N)C(=O)N[C@@H](C)C(=O)N[C@@H](Cc1ccccc1)C(=O)N[C@H](C(=O)N[C@@H](CCC(=O)O)C(=O)N[C@@H](Cc1c[nH]c2ccccc12)C(=O)N[C@@H](CC(C)C)C(=O)N[C@@H](CC(C)C)C(=O)N[C@@H](C)C(=O)N[C@@H](CCC(N)=O)C(=O)NCC(=O)N1CCC[C@H]1C(=O)N[C@@H](CO)C(=O)N[C@@H](CO)C(=O)NCC(=O)N[C@@H](C)C(=O)N1CCC[C@H]1C(=O)N1CCC[C@H]1C(=O)N1CCC[C@H]1C(=O)N[C@@H](CO)C(N)=O)C(C)C [Compound 36] (H-Y[Aib]EGTFTSDYSIYLDKK([γGlu-C20 diacid])AQRAFVEWLLAQGPSSGAPPPS-NH2) |  | 10 |  | 15
4 | CC[C@H](C)[C@H](NC(=O)[C@H](CO)NC(=O)[C@H](Cc1ccc(O)cc1)NC(=O)[C@H](CC(=O)O)NC(=O)[C@H](CO)NC(=O)[C@@H](NC(=O)[C@H](Cc1ccccc1)NC(=O)[C@@H](NC(=O)CNC(=O)[C@H](CCC(=O)O)NC(=O)C(C)(C)NC(=O)[C@@H](N)Cc1ccc(O)cc1)[C@@H](C)O)[C@@H](C)O)C(=O)N[C@@H](Cc1ccc(O)cc1)C(=O)N[C@@H](CC(C)C)C(=O)N[C@@H](CC(=O)O)C(=O)N[C@@H](CCCCN)C(=O)N[C@@H](CCCCNC(=O)COCCOCCNC(=O)COCCOCCNC(=O)[C@H](CN)NC(=O)CCCCCCCCCCCCCCCCCCC(=O)O)C(=O)N[C@@H](C)C(=O)N[C@@H](CCC(N)=O)C(=O)N[C@@H](CCCNC(=N)N)C(=O)N[C@@H](C)C(=O)N[C@@H](Cc1ccccc1)C(=O)N[C@H](C(=O)N[C@@H](CCC(=O)O)C(=O)N[C@@H](Cc1c[nH]c2ccccc12)C(=O)N[C@@H](CC(C)C)C(=O)N[C@@H](CC(C)C)C(=O)N[C@@H](C)C(=O)N[C@@H](CCC(N)=O)C(=O)NCC(=O)N1CCC[C@H]1C(=O)N[C@@H](CO)C(=O)N[C@@H](CO)C(=O)NCC(=O)N[C@@H](C)C(=O)N1CCC[C@H]1C(=O)N1CCC[C@H]1C(=O)N1CCC[C@H]1C(=O)N[C@@H](CO)C(N)=O)C(C)C [Compound 37] (H-Y[Aib]EGTFTSDYSIYLDKK([AEEA-AEEA-Dap-C20 diacid])AQRAFVEWLLAQGPSSGAPPPS-NH2) |  | 17 |  | 14
5 | CC[C@H](C)[C@H](NC(=O)[C@H](CO)NC(=O)[C@H](Cc1ccc(O)cc1)NC(=O)[C@H](CC(=O)O)NC(=O)[C@H](CO)NC(=O)[C@@H](NC(=O)[C@H](Cc1ccccc1)NC(=O)[C@@H](NC(=O)CNC(=O)[C@H](CCC(=O)O)NC(=O)C(C)(C)NC(=O)[C@@H](N)Cc1ccc(O)cc1)[C@@H](C)O)[C@@H](C)O)C(=O)N[C@@H](C)C(=O)N[C@@H](CC(C)C)C(=O)N[C@@H](CC(=O)O)C(=O)N[C@@H](CCCCN)C(=O)N[C@@H](CCCCNC(=O)COCCOCCNC(=O)COCCOCCNC(=O)CC[C@H](NC(=O)CCCCCCCCCCCCCCCCCCC(=O)O)C(=O)O)C(=O)N[C@@H](C)C(=O)N[C@@H](CCC(N)=O)C(=O)N[C@@H](CCCNC(=N)N)C(=O)N[C@@H](C)C(=O)N[C@@H](Cc1ccccc1)C(=O)N[C@H](C(=O)N[C@@H](CCC(=O)O)C(=O)N[C@@H](Cc1c[nH]c2ccccc12)C(=O)N[C@@H](CC(C)C)C(=O)N[C@@H](CC(C)C)C(=O)N[C@@H](C)C(=O)N[C@@H](CCC(N)=O)C(=O)N[C@@H](CCCCN)C(=O)N1CCC[C@H]1C(=O)N[C@@H](CO)C(=O)N[C@@H](CO)C(=O)NCC(=O)N[C@@H](C)C(=O)N1CCC[C@H]1C(=O)N1CCC[C@H]1C(=O)N1CCC[C@H]1C(=O)N[C@@H](CO)C(N)=O)C(C)C [Compound 38] (H-Y[Aib]EGTFTSDYSIALDKK([AEEA-AEEA-γGlu-C20 diacid])AQRAFVEWLLAQKPSSGAPPPS-NH2) |  | 5 |  | 12
6 | CC[C@H](C)[C@H](NC(=O)[C@H](CO)NC(=O)[C@H](Cc1ccc(O)cc1)NC(=O)[C@H](CC(=O)O)NC(=O)[C@H](CO)NC(=O)[C@@H](NC(=O)[C@H](Cc1ccccc1)NC(=O)[C@@H](NC(=O)CNC(=O)[C@H](CCC(=O)O)NC(=O)[C@@H](C)NC(=O)[C@@H](N)Cc1ccc(O)cc1)[C@@H](C)O)[C@@H](C)O)C(=O)N[C@@H](C)C(=O)N[C@@H](CC(C)C)C(=O)N[C@@H](CC(=O)O)C(=O)N[C@@H](CCCCN)C(=O)N[C@@H](CCCCNC(=O)COCCOCCNC(=O)COCCOCCNC(=O)CC[C@H](NC(=O)CCCCCCCCCCCCCCCCCCC(=O)O)C(=O)O)C(=O)N[C@@H](C)C(=O)N[C@@H](CCC(N)=O)C(=O)N[C@@H](CCCNC(=N)N)C(=O)N[C@@H](C)C(=O)N[C@@H](Cc1ccccc1)C(=O)N[C@H](C(=O)N[C@@H](CCC(=O)O)C(=O)N[C@@H](Cc1c[nH]c2ccccc12)C(=O)N[C@@H](CC(C)C)C(=O)N[C@@H](CC(C)C)C(=O)N[C@@H](C)C(=O)N[C@@H](CCC(N)=O)C(=O)N[C@@H](CCCCN)C(=O)N1CCC[C@H]1C(=O)N[C@@H](CO)C(=O)N[C@@H](CO)C(=O)NCC(=O)N[C@@H](C)C(=O)N1CCC[C@H]1C(=O)N1CCC[C@H]1C(=O)N1CCC[C@H]1C(=O)N[C@@H](CO)C(N)=O)C(C)C [Compound 39] (H-Y[dA]EGTFTSDYSIALDKK([AEEA-AEEA-γGlu-C20 diacid])AQRAFVEWLLAQKPSSGAPPPS-NH2) |  | 11 |  | 6
